Experimental data from patent publication US11976061B2, “Preparation of benzimidazolone derivatives as novel diacylglyceride O-acyltransferase 2 inhibitors” (Merck Sharp & Dohme LLC, priority 2020, dated 2024).
Where two headings read alike, the source gives them in different places.

Molecular target: T1, human DGAT2 (hDGAT2) (Homo sapiens, UniProt Q96PD7)
T1 construct: made in house; host or cells: Sf-9 insect cells (baculovirus), membrane fraction
T1 sequence (Q96PD7 1-388): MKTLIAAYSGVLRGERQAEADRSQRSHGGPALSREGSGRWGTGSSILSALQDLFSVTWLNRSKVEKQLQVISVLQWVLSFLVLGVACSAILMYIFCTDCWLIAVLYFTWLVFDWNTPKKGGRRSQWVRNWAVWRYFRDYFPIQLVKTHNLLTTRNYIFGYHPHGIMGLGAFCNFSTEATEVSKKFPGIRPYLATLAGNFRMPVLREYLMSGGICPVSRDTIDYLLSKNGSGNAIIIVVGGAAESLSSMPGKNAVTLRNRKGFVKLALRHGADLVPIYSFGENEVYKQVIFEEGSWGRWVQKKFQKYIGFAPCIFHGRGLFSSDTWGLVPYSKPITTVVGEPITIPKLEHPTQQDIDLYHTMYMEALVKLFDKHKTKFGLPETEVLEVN
Test: DGAT2 Enzymatic Activity Assay
Assay type: biochemical
Details: membrane prep of Sf-9 cells expressing hDGAT2, 25 μM diolein, 5 μM 13C oleoyl-CoA, 13C18-triolein by LC/MS/MS
Protocol: Insect Cell Expression and Membrane Preparation
Sf-9 insect cells were maintained in Grace's insect cell culture medium with 10% heated-inactivated fetal bovine serum, 1% Pluronic F-68 and 0.14 μg/ml Kanamycine sulfate at 27° C. in a shaker incubator. After infection with untagged baculovirus expressing human DGAT2 (hDGAT2) at multiplicity of infection (MOI) 3 for 48 hours, cells were harvested. Cell pellets were suspended in buffer containing 10 mM Tris-HCl pH 7.5, 1 mM EDTA, 250 mM sucrose and Complete Protease Inhibitor Cocktail (Sigma Aldrich), and sonicated on ice. Cell debris were removed by centrifugation at 2000×g for 15 minutes. Membrane fractions were isolated by ultracentrifugation (100,000×g), resuspended in the same buffer, and frozen (−80° C.) for later use. The protein concentration was determined with the Pierce™ BCA Protein Assay Kit (Thermo Fisher Scientific). Expression of protein levels was analyzed by immunoblotting with rabbit anti-DGAT2 antibody (Abcam, ab102831) and donkey anti-rabbit IgG H&L Alexa Fluor® 647 (Abcam, ab150075) followed by detection using Typhoon FLA9000 (GE Healthcare).
LC/MS/MS analyses were performed using Thermal Fisher's LX4-TSQ Vantage system. This system consists of an Agilent binary high-performance liquid chromatography (HPLC) pump and a TSQ Vantage triple quadrupole MS/MS instrument. For each sample, 2 μL samples from the top organic layer of in-plate liquid-liquid extraction were injected onto a Thermo Betabasic C4 column (2.1 mm×20 mm, 5 μm particle size). The samples were then eluted using the following conditions; mobile phase: Isopropanol:acetonitrile/10 mM ammonium formate=50/35/15 (v/v/v), flow rate: 0.8 mL/min, temperature: 25° C. Data was acquired in positive mode using a heated electrospray ionization (HESI) interface. The operational parameters for the TSQ Vantage MS/MS instrument were a spray voltage of 3000 V, capillary temperature of 280° C., vaporizer temperature 400° C., sheath gas 45 arbitrary unit, Aux gas 10 arbitrary units, S-lens 165 and collision gas 1.0 mTorr. […] (SRM) chromatograms of ^13C18-triolein (Q1: 920.8>Q3: 621.3) and internal standard ^13C21-triolein (Q1: 923.8>Q3: 617.3) were collected for 33 sec. The peak area was integrated by Xcalibur Quan software. The ratio between the ^13C18triolein generated in the reaction and spiked in internal standard ^13C21-triolein was used to generate percentage inhibition and IC50 values. Compound percentage inhibition was calculated by the following formula: Inhibition %=1−[(compound response−low control)/(high control−low control)]×100%. Potent compounds were titrated and IC50 were calculated by 4 parameter sigmoidal curve fitting formula.
DGAT2 Enzymatic Activity Assay
DGAT2 activity was determined by measuring the amount of enzymatic product ^13C18-triolein (^13C-1,2,3-Tri(cis-9-octadecenoyl)glycerol) using the membrane prep mentioned above. The assay was carried out in ABgene 384-well assay plates in a final volume of 25 μL at rt. The assay mixture contained the following: assay buffer (100 mM Tris·Cl, pH 7.0, 20 mM MgCl2, 5% ethanol), 25 μM of diolein, 5 μM of ^13C oleoyl-CoA and 8 ng/μL of DGAT2 membrane.

SMILES	IC50 (read-out: DGAT2 IC50)	IC50 (read-out: Human DGAT2 IC50)
CCOc1cc(-n2c(=O)n(C(C)C(C)(C)O)c3cc(C(=O)NC4(C)CS(=O)(=O)C4)ccc32)c(F)cn1 (single isomer, unassigned) [Example 78b, 1-(2-ethoxy-5-fluoropyridin-4-yl)-3-(3-hydroxy-3-methylbutan-2-yl)-N-(3-methyl-1,1-dioxidothietan-3-yl)-2-oxo-2,3-dihydro-1H-benzo[d]imidazole-5-carboxamide]	13 nM	
CCC(C)n1c(=O)n(-c2cccc(OC(F)F)c2)c2ccc(C(=O)NC3(C)CS(=O)(=O)C3)cc21 (single isomer, unassigned) [Example 46b, 3-(sec-butyl)-1-(3-(difluoromethoxy)phenyl)-N-(3-methyl-1,1-dioxidothietan-3-yl)-2-oxo-2,3-dihydro-1H-benzo[d]imidazole-5-carboxamide]	92 nM	
CC(C)n1c(=O)n(-c2cccc(OC(F)F)c2)c2ccc(C(=O)N[C@@]3(C)CCS(=O)(=O)C3)cc21 [Example 32, 1-[3-(difluoromethoxy)phenyl]-3-isopropyl-N-[(3S)-3-methyl-1,1-dioxo-thiolan-3-yl]-2-oxo-benzimidazole-5-carboxamide]	96 nM	
CC1(NC(=O)c2ccc3c(c2)n(C2CC2)c(=O)n3-c2cccc(OC(F)F)c2)CCS(=O)(=O)CC1 [Example 41, 3-Cyclopropyl-1-(3-(difluoromethoxy)phenyl)-N-(4-methyl-1,1-dioxidotetrahydro-2H-thiopyran-4-yl)-2-oxo-2,3-dihydro-1H-benzo[d]imidazole-5-carboxamide]	211 nM	
CC(C)n1c(=O)n(-c2cc(OC(F)F)ccc2F)c2ccc(C(=O)NC3(C)CS(=O)(=O)C3)cc21 [Example 80, 1-(5-(Difluoromethoxy)-2-fluorophenyl)-3-isopropyl-N-(3-methyl-1,1-dioxidothietan-3-yl)-2-oxo-2,3-dihydro-1H-benzo[d]imidazole-5-carboxamide]		7.7 nM
CC(C)n1c(=O)n(-c2cccc(C#N)c2)c2ccc(C(=O)NC3(C)CCS(=O)(=O)CC3)cc21 [Example 52, 1-(3-cyanophenyl)-3-isopropyl-N-(4-methyl-1,1-dioxidotetrahydro-2H-thiopyran-4-yl)-2-oxo-2,3-dihydro-1H-benzo[d]imidazole-5-carboxamide]	> 9990 nM	
CC(C)n1c(=O)n(-c2cccc(OC(F)F)c2)c2ccc(C(=O)NC3(C)CCS(=O)(=O)CC3)c(C#N)c21 [Example 129, 4-cyano-1-(3-(difluoromethoxy)phenyl)-3-isopropyl-N-(4-methyl-1,1-dioxidotetrahydro-2H-thiopyran-4-yl)-2-oxo-2,3-dihydro-1H-benzo[d]imidazole-5-carboxamide]		248 nM
CC(C)n1c(=O)n(-c2cccc(OC(F)F)c2)c2ccc(C(=O)N[C@H]3CCCC(F)(F)[C@@H]3O)cc21 [Example 30, N-[(1S,2R)-3,3-difluoro-2-hydroxy-cyclohexyl]-1-[3-(difluoromethoxy)phenyl]-3-isopropyl-2-oxo-benzimidazole-5-carboxamide]	31 nM	
CC(C)n1c(=O)n(-c2cccc(OC(F)F)c2)c2c(F)cc(C(=O)NC3(C)CS(=O)(=O)C3)cc21 [Example 108, 1-[3-(difluoromethoxy)phenyl]-7-fluoro-3-isopropyl-N-(3-methyl-1,1-dioxo-thietan-3-yl)-2-oxo-benzimidazole-5-carboxamide]		12 nM
CCOc1cc(-n2c(=O)n(C(C)C)c3cc(C(=O)NC4(C(F)F)CCS(=O)(=O)CC4)c(F)cc32)c(F)cn1 [Example 117, N-(4-(difluoromethyl)-1,1-dioxidotetrahydro-2H-thiopyran-4-yl)-1-(2-ethoxy-5-fluoropyridin-4-yl)-6-fluoro-3-isopropyl-2-oxo-2,3-dihydro-1H-benzo[d]imidazole-5-carboxamide]	27 nM	
CC(n1c(=O)n(-c2cc(OCC(F)F)ncc2F)c2ccc(C(=O)NC3(C)CCS(=O)(=O)CC3)cc21)C(C)(C)O (single isomer, unassigned) [Example 72a, 1-(2-(2,2-difluoroethoxy)-5-fluoropyridin-4-yl)-3-(3-hydroxy-3-methylbutan-2-yl)-N-(4-methyl-1,1-dioxidotetrahydro-2H-thiopyran-4-yl)-2-oxo-2,3-dihydro-1H-benzo[d]imidazole-5-carboxamide]	6.4 nM	

The remaining molecules from weak to strong by IC50 (read-out: DGAT2 IC50), led by results:

IC50 (read-out: DGAT2 IC50)	IC50 (read-out: Human DGAT2 IC50)	SMILES
1260 nM		CC(C)n1c(=O)n(-c2cccc(OC(F)F)c2)c2ccc(C(=O)N[C@H]3CCOC[C@@H]3O)cc21 [Example 29, 1-[3-(difluoromethoxy)phenyl]-N-[(3R,4S)-3-hydroxytetrahydropyran-4-yl]-3-isopropyl-2-oxo-benzimidazole-5-carboxamide]
64 nM		C[C@@]1(NC(=O)c2ccc3c(c2)n(C2CCC2)c(=O)n3-c2cccc(OC(F)F)c2)CCS(=O)(=O)C1 [Example 37, (R)-3-Cyclobutyl-1-(3-(difluoromethoxy)phenyl)-N-(3-methyl-1,1-dioxidotetrahydrothiophen-3-yl)-2-oxo-2,3-dihydro-1H-benzo[d]imidazole-5-carboxamide]
30.4 nM		CC(n1c(=O)n(-c2cc(OC(F)(F)F)ccc2F)c2cc(F)c(C(=O)NC3(C)CCS(=O)(=O)CC3)cc21)C(C)(C)O (single isomer, unassigned) [Example 70b, 6-fluoro-1-(2-fluoro-5-(trifluoromethoxy)phenyl)-3-(3-hydroxy-3-methylbutan-2-yl)-N-(4-methyl-1,1-dioxidotetrahydro-2H-thiopyran-4-yl)-2-oxo-2,3-dihydro-1H-benzo[d]imidazole-5-carboxamide]
24 nM		CC(C)n1c(=O)n(-c2cccc(OC(F)(F)C(F)F)c2)c2ncc(C(=O)NC3(C)CS(=O)(=O)C3)cc21 [Example 93, 1-isopropyl-N-(3-methyl-1,1-dioxo-thietan-3-yl)-2-oxo-3-[3-(1,1,2,2-tetrafluoroethoxy)phenyl]imidazo[4,5-b]pyridine-6-carboxamide]
24 nM		C[C@@]1(NC(=O)c2ccc3c(c2)n(C2CCCC2)c(=O)n3-c2cccc(OC(F)F)c2)CCS(=O)(=O)C1 [Example 38, (R)-3-Cyclopentyl-1-(3-(difluoromethoxy)phenyl)-N-(3-methyl-1,1-dioxidotetrahydrothiophen-3-yl)-2-oxo-2,3-dihydro-1H-benzo[d]imidazole-5-carboxamide]
9 nM		CC(C)n1c(=O)n(-c2cccc(OC(F)F)c2)c2c(F)cc(C(=O)N[C@@]3(C)CCS(=O)(=O)C3)cc21 [Example 109, 1-[3-(difluoromethoxy)phenyl]-7-fluoro-3-isopropyl-N-[(3S)-3-methyl-1,1-dioxo-thiolan-3-yl]-2-oxo-benzimidazole-5-carboxamide]
2.4 nM		CC(n1c(=O)n(-c2cc(OCC(F)F)ccc2F)c2cc(F)c(C(=O)NC3(C)CCS(=O)(=O)CC3)cc21)C(C)(C)O (single isomer, unassigned) [Example 75b, 1-(5-(2,2-difluoroethoxy)-2-fluorophenyl)-6-fluoro-3-(3-hydroxy-3-methylbutan-2-yl)-N-(4-methyl-1,1-dioxidotetrahydro-2H-thiopyran-4-yl)-2-oxo-2,3-dihydro-1H-benzo[d]imidazole-5-carboxamide]
